From PubChem BioAssay AID1996
Converted amounts (≈) assume the structure as drawn.

conditions: buffer; pH 7.4; 200.0 µM

Structure (SMILES) | solubility kinetic [µg/mL]
COc1cc2c(cc1OC)CN(Cc1ccccc1)CC2 | 35.6 (≈ 126 µM)
CCc1ccc(N2CC(C(=O)Nc3ccc(F)cc3)CC2=O)cc1 (stereo not given) | 0.8 (≈ 2.45 µM)
O=C(NCCOc1ccccc1)c1ccccc1[N+](=O)[O-] | > 42.9
O=C(Nc1ccccc1)c1cc(S(=O)(=O)Nc2cccnc2)ccc1Cl | > 58.2
Cc1cnc(NC(=O)c2sc(Nc3ccccc3)nc2N)o1 | 6.4 (≈ 20.3 µM)
CSc1ccccc1C(=O)NCCCn1ccnc1 | > 41.3
Cc1onc(-c2ccccc2)c1C(=O)N1CCN(c2ccccn2)CC1 | > 52.3
CCN1CCN(c2ncnc3scc(-c4ccc(C)c(C)c4)c23)CC1 | > 52.9
S=C(NCc1ccco1)Nc1ccc2c(c1)OCCO2 | > 43.6
CC(C)C(CCNCc1ccccn1)c1ccc(Cl)cc1 (stereo not given) | 24.8 (≈ 81.9 µM)
O=C(O)c1cccc(S(=O)(=O)Nc2ccc(Cc3ccncc3)cc2)c1 | > 55.3
COc1ccc(-c2cnc3n2CCCCC3)cc1 | > 36.3
CC(=O)Nc1ccc(S(=O)(=O)N2CCCC2)cc1 | > 40.2
CC1(C)CN(C(Cc2ccccc2)C(N)=O)C1=O (stereo not given) | > 36.9
NC(=O)c1ccccc1NC(=O)c1cccc(C(=O)Nc2ccccc2C(N)=O)n1 | 5.3 (≈ 13.1 µM)
Cc1nn(-c2cccc(C(=O)O)c2)c(C)c1[N+](=O)[O-] | > 39.2
O=C(O)c1cc(-c2ccccc2Cl)n(-c2ccccc2)n1 | > 44.8
COC(=O)c1ccc(C(=O)NC2CCSc3ccccc32)cc1 (stereo not given) | 4 (≈ 12.2 µM)
COc1ccc(Cl)cc1NC(=O)CN(C)C(=O)/C=C/c1ccco1 | > 52.3
Cc1nc2c(C)cccc2c2c1COC2 | 18.4 (≈ 92.3 µM)
CN(C)c1ccc(NC(=O)COC(=O)c2ccc3c(c2)OCO3)cc1 | 10.8 (≈ 31.5 µM)
Clc1ccc(SCCCN2CCCCC2)cc1.O=C(O)C(=O)O | > 54

Structure (SMILES) | solubility kinetic [µg/mL]
NC(=O)COC(=O)CCCSc1nc2ccccc2s1 | > 46.6
O=C(Nc1cccc([N+](=O)[O-])c1)N1CCN(c2ccccc2)CC1 | 3.6 (≈ 11 µM)
O=[N+]([O-])c1ccc(OCc2cnc(Cl)s2)cc1 | 5.6 (≈ 20.7 µM)
Cc1ccc(C)c(NC(=O)c2cnccn2)c1 | 23.9 (≈ 105 µM)
COc1ccc2c(c1)C(=O)N(CCc1ccc(S(=O)(=O)NC(=O)NC3CCCCC3)cc1)C(=O)C2(C)C | 69.5 (≈ 132 µM)
Cc1ccc(C(=O)N2CCC(C(=O)NC3CCCC3)CC2)cc1 | 44 (≈ 140 µM)
CC(C)CC(C(=O)N1CCOCC1)N1Cc2ccccc2C1=O (stereo not given) | 47.3 (≈ 149 µM)
CCCCn1c(N)c(N(C)C(=O)C2CCCC2)c(=O)[nH]c1=O | > 46.3
Cc1ccc(C(=O)NC2(O)C(=O)c3ccccc3C2=O)cc1C | > 46.4
CCc1cc2c(=O)n(-c3ccccc3)c(SCC(=O)O)nc2s1 | > 52
COc1ccc2[nH]cc(CCNC(=S)NC3CCCC3)c2c1 | 43.6 (≈ 137 µM)
Cc1cc(OCCCC(=O)NCCc2ccccn2)ccc1Cl | > 49.9
Cc1ccc(NC(=S)NC(=O)C2CC2)cc1Cl | 2.9 (≈ 10.8 µM)
CCOC(=O)c1ccc(CC2SC(N)=NC2=O)cc1 (stereo not given) | 36.6 (≈ 131 µM)
COc1cc(/C=C2\SC(N3CCC(C)CC3)=NC2=O)ccc1O | > 49.9
Cc1cccc(C(=O)Nc2cc(NC(=O)c3cccs3)ccc2C)c1 | 2 (≈ 5.71 µM)
CN1CCCNc2nc3ccccc3nc21 | > 32.1
Br.N=C(N)SCCc1cccc(CCSC(=N)N)c1 | > 66.6
NS(=O)(=O)c1ccc(NC(=O)CN2C(=O)c3ccccc3C2=O)cc1 | > 53.9
Cc1nc(C(F)(F)F)ccc1C(=O)NN1CCOCC1 | > 43.4
O=[N+]([O-])c1ccc(C(O)C(CO)NC(=S)Nc2ccccc2)cc1 (stereo not given) | > 52.1
O=C(NCC1CCCO1)c1ccc(N2C(=O)C3CCCCC3C2=O)cc1 (stereo not given) | 44.9 (≈ 126 µM)

Structure (SMILES) | solubility kinetic [µg/mL]
CCCCCCC(=O)N(O)C1CC(=O)N(c2ccc(Cl)cc2)C1=O (stereo not given) | 43.9 (≈ 124 µM)
Cc1cccc(NC(=O)c2ccc(Cl)nc2)n1 | > 37.2
O=C(O)c1sccc1NC(=O)c1c(Cl)cccc1Cl | > 47.4
O=C(NCc1ccncc1)c1cc2ccccc2nc1Cl | 43.4 (≈ 146 µM)
O=S(=O)(c1cc(F)ccc1F)N1CCN(c2ncnc3ccccc23)CC1 | 56.7 (≈ 145 µM)
Cc1nn(CC(=O)Nc2ccc(N3CCOCC3)cc2)c(C)c1[N+](=O)[O-] | > 53.9
CC(NC(=O)CN(C)Cc1cccc(F)c1)c1ccccc1 (stereo not given) | > 45.1
Cc1ccc(C#CC[N+]2(C)CCCCC2)cc1.[Br-] | > 46.2
CCc1noc(C)c1C(=O)OCC(=O)c1ccccc1OC | 4.6 (≈ 15.2 µM)
Cc1ccc(S(=O)(=O)N2CCN(C(=O)C3CCCO3)CC2)cc1 (stereo not given) | 49.8 (≈ 147 µM)
CCN1CCN(c2ncnc3scc(-c4ccc(C)cc4)c23)CC1 | > 50.8
CCOCCCNC(=O)c1cc2c(=O)n3cccc(C)c3nc2s1 | 4.1 (≈ 11.9 µM)
C=CCn1c(O)c(/C=C2\C=Nc3ccccc32)c(=O)[nH]c1=O | 4 (≈ 13.5 µM)
O=C(N/N=C/c1cccnc1)c1cc(C2CC2)nc2ccccc12 | > 47.5
N#Cc1c(F)cccc1N1CCN(Cc2ccc3c(c2)OCO3)CC1 | 14.6 (≈ 43 µM)
CCCC12CN3CC(C)(CN(C1)C3c1ccc([N+](=O)[O-])o1)C2=O (stereo not given) | > 47.9
Br.COc1ccc(C2=CSC3=NCCN23)cc1 | > 47
O=C(O)c1cc(=O)c2ccccc2[nH]1 | > 28.4
Cc1cc(NC(=O)CSCc2ccc([N+](=O)[O-])cc2)no1 | 24.6 (≈ 80 µM)
COc1ccc2nc(NC(=O)C3CC(=O)N(c4ccccc4)C3)sc2c1 (stereo not given) | 0.7 (≈ 1.91 µM)
CCOc1cccc(CN2CCC(CCC(=O)NC3CC3)CC2)c1O | 44.4 (≈ 128 µM)
COc1cccc(OC)c1C(=O)NCCc1ccccc1 | > 42.8

Structure (SMILES) | solubility kinetic [µg/mL]
O=C(c1ccc(-n2cccn2)cc1)N1CCc2ccccc2C1 | > 45.5
CCCC(=O)OCC(=O)c1[nH]c(C)c(C(C)=O)c1C | > 39.8
CN(CC(=O)NCc1ccc2c(c1)OCO2)S(=O)(=O)c1ccc(Cl)cc1 | 8.6 (≈ 21.7 µM)
Cc1cccnc1NC(=O)Nc1cccc(Cl)c1 | 0.5 (≈ 1.91 µM)
O=C1c2ccccc2NC(c2cccc([N+](=O)[O-])c2)N1O (stereo not given) | > 42.8
COc1cccc(C(=O)OCC(=O)NC(=O)NC2CCCC2)c1O | 38.5 (≈ 114 µM)
O=S(=O)(NCc1csc(-c2cccs2)n1)c1cccs1 | 49 (≈ 143 µM)
COc1cc(C(=O)OCC(=O)Nc2ccc(S(=O)(=O)NC3=NCCCCC3)cc2)cc(OC)c1OC | 73.5 (≈ 141 µM)
COc1cc(OC)cc(C(=O)Nc2cc(C)on2)c1 | 9.7 (≈ 37 µM)
O=C(O)C1CSC2(c3ccc(F)cc3)CCC(=O)N12 (stereo not given) | > 42.2
CN(CC(=O)Nc1ccc(F)cc1)CC(=O)NC1CCCCC1 | > 48.2
O=C1Nc2ccccc2C1=Nc1ccc(F)cc1 | > 36
CC(C)(C)c1cc(/C=C2\NC(=O)NC2=O)cc(C(C)(C)C)c1O | 6.6 (≈ 20.9 µM)
Cc1ccc(-c2c(NCCc3ccccc3)c(=O)c2=O)cc1 | < 0.6
Cc1ccccc1NC(=O)CCOc1ccccc1 | > 38.3
COc1ccc(C(=O)NCCCCc2ccccc2)cc1 | 2.9 (≈ 10.2 µM)
CCn1c(SCc2ccccc2)nc2cc(S(N)(=O)=O)ccc21 | 2.2 (≈ 6.33 µM)
O=C(NC1CCSc2ccccc21)c1cccc(Cl)c1 (stereo not given) | 2.1 (≈ 6.91 µM)
O=C(COC(=O)C1CC1)Nc1ccc2c(c1)OCO2 | > 39.5
